The test is described as follows: Measurement of ability for eliminating hydroxyl radicals (ESR spin trapping method, Fenton's reaction, DMPO). The note with it: 1 mM of DMPO; DMPO-OH ESR signal; phosphate buffer pH 7.8; room temperature; read-out: Concentration of Test Substance at 50% Inhibition of Signal Intensity, IC50.

Experimental: Ability of the test substances for eliminating hydroxyl radicals was measured using an ESR spin trapping method which is frequently used for the detection of hydroxyl radicals. Generation of hydroxyl radicals was carried out using a Fenton's reaction in which hydroxyl radicals are generated by a reaction of divalent iron chelated with DTPA (diethylenediamine-pentaacetic acid) with hydrogen peroxide. […] When a test substance having an eliminating action for hydroxyl radicals is present in this reaction system, the above characteristic signal is inhibited and, therefore, the ability for eliminating hydroxyl radicals can be measured using that signal inhibition as an index.
Thus, a solution of a mixture of 1 mM of ferrous sulfate and DTPA dissolved in 100 mM of a phosphate buffer (pH 7.8) was charged in a test tube. Then, 50 μl of a sample solution containing the test substance or hydantoin compound of the invention and 20 μl of 1 mM or 2 mM of DMPO were added. Finally, 75 μl of 1 mM of hydrogen peroxide solution was added to the resulting mixture to initiate the reaction. Hydrogen peroxide solution was prepared immediately before each of the experiments and the reaction was conducted at room temperature.
An ESR spectrum in this reaction system was measured by conventional means. […]

For the compound `CN1C(=O)NC(=O)C1O` (stereo not shown) [Compound 21, 5-Hydroxy-1-methylhydantoin], the IC50 stood at 1000 µM.
